# Test results as given in US20230255873A1, “COSMETIC OR DERMATOLOGICAL PEPTIDE-BASED TREATMENT OF THE SKIN AND ITS INTEGUMENTS” (Sederma, priority 2020, published 2023).
# The star is where a group is joined. Palmitoyl = CCCCCCCCCCCCCCCC(=O)*
# B1: Pal-KTSKS-OH (peptide)
# peptide: Palmitoyl-KTSKS-OH
# SMILES: CCCCCCCCCCCCCCCC(=O)N[C@@H](CCCCN)C(=O)N[C@H](C(=O)N[C@@H](CO)C(=O)N[C@@H](CCCCN)C(=O)N[C@@H](CO)C(=O)O)[C@@H](C)O
# Assays:
# P. acnes = P. acnes growth curve (time to OD600 nm = 0.5); assay type: cell-based, Propionibacterium acnes; conditions: for Time (in hour) to reach OD600 nm = 0.5: vehicle 42-44 h
# Protocol: 1—P. acnes growth curve (same protocol as described above at point 1.4)
# P. acnes is thawed and grown over 3 days in M20 media. Then, optical density at 600 nm (OD600) is measured and 2×10^6 CFU*/mL are plated in well plates. P. acnes is then treated with 6 ppm, 9 ppm and 12 ppm of peptides. To follow bacterial cell multiplication, OD600 is measured regularly for about 1 week. […] Statistical evaluations are performed on results using a Student t test. Two independent experiments are performed (N=2).
# [1] = test system: normal human keratinocytes (NHK); assay: Involucrin quantification by immunohistochemistry in NHK; assay type: cell-based; conditions: 5 ppm
# Protocol: Normal human keratinocytes (NHK) are grown on wells plate. When subconfluence was reached, cells received various concentrations of the peptides. After few days, evaluation of differentiation is compared to solvent control under microscope and cells are fixed to allow the study of involucrin by immunohistochemistry.
# Involucrin is an early marker of keratinocytes differentiation. The below table show the percentage of variation of involucrin vs. Control.
# [2] = target: extracellular lipases of P. acnes (Propionibacterium acnes); assay: cell-based or functional assay
Molecule,Delay in P. acnes growth versus vehicle (P. acnes; 6 ppm),Time (in hour) to reach OD600 nm = 0.5 (P. acnes; 6 ppm),Delay in P. acnes growth versus vehicle (P. acnes; 9 ppm),Time (in hour) to reach OD600 nm = 0.5 (P. acnes; 9 ppm),Delay in P. acnes growth versus vehicle (P. acnes; 12 ppm),Time (in hour) to reach OD600 nm = 0.5 (P. acnes; 12 ppm),Involucrin (% var vs. Control) [1],"Reduction in lipase activity of P. acnes (4-MUO fluorescent probe), variation (%) vs solvent control, 6 ppm of peptide [2]","Reduction in lipase activity of P. acnes (4-MUO fluorescent probe), variation (%) vs solvent control, 9 ppm of peptide [2]","Reduction in lipase activity of P. acnes (4-MUO fluorescent probe), variation (%) vs solvent control, 12 ppm of peptide [2]"
"Pal-KTSKT-OH (Palmitoyl-KTSKT-OH; SMILES CCCCCCCCCCCCCCCC(=O)N[C@@H](CCCCN)C(=O)N[C@H](C(=O)N[C@@H](CO)C(=O)N[C@@H](CCCCN)C(=O)N[C@H](C(=O)O)[C@@H](C)O)[C@@H](C)O) [other preferred peptide of the invention, palmitoyl pentapeptide KTSKT]",+5 h,47.7 h,+13 h,55.2 h,+43 h,85.1 h,+125%; p < 0.01,–,–,–
Pal-GKTSKS-OH,+2 h,45.6 h,+12 h,56.2 h,+26 h,70.2 h,–,–,–,–
"Pal-KTSKSA-OH (Palmitoyl-KTSKSA-OH; SMILES CCCCCCCCCCCCCCCC(=O)N[C@@H](CCCCN)C(=O)N[C@H](C(=O)N[C@@H](CO)C(=O)N[C@@H](CCCCN)C(=O)N[C@@H](CO)C(=O)N[C@@H](C)C(=O)O)[C@@H](C)O) [other preferred peptide of the invention, palmitoyl hexapeptide KTSKSA]",+5 h,47.3 h,+15 h,57.9 h,+18 h,60.5 h,+152%; p < 0.01,–,–,–
B1,–,–,–,–,–,–,–,-22%,-64%,-88%
